According to US11753433B2, “Methods of synthesizing substituted purine compounds” (Epizyme, Inc., priority 2013, dated 2023):

What was measured:
Assay type in all cases: physicochemical
[1] = Solid-state photostability
Method: The solid-state photostability of EP-1 trihydrate (x is 3) was assessed upon exposure to UV/Vis light according to ICH guidelines. Loss of claim %, loss of area %, and degradates were evaluated versus dark control samples.
Solid-State Photostability: Weighed ˜5 mg Form B into glass vials with 2 vials covered with foil as the controls. Put these 2 samples with their controls into chamber and expose them to Vis (10 Kilo lux) for 120 hrs followed by UV (10 W/m^2) for 20 hrs (per ICH guidelines). At the end of Vis, take 1 sample and 1 control out for analysis and the others were taken out after both Vis and UV exposure.

[2] = Slurry experiments using Form B and Form C (relative stability); conditions: RT
Method: The relative stability between Form B and Form C was investigated as a function of water activity at room temperature using ACN/H2O. In general, about 10-30 mg Form B was added to a 5-ml glass vial with 0.5 ml corresponding solvents to get suspensions at room temperature. Then 10-30 mg Form C was added to the suspensions which were kept stirring for 24 h. The water activity was calculated using the UNIFAC model.

[3] = Dynamic vapor sorption (DVS) hygroscopicity; conditions: between 0% and 95% RH, 25° C.
Method: (peak temperature) which is accompanied by 5.9 wt % weight loss up to ˜150° C. in the TGA curve (FIG. 3). […] A solid is considered moderately hygroscopic when water uptake at 25° C./80% RH is between 2-15 wt % based on criteria of European Pharmacopeia. […] Form B of EP-1 trihydrate (x is 3) is a trihydrate as confirmed by single crystal analysis. The experimental XRPD pattern of Form B matches well with the simulated one from single crystal data (FIG. 6). This was also confirmed by DSC and TGA data (FIG. 7 and FIG. 8, respectively). DSC data indicates Form B dehydrates at ˜132° C. […] Form B is slightly hygroscopic as evidenced by a weight change of ˜0.3% between 0% and 95% RH (FIG. 9), (data collection was programmed from 95% RH-0% RH-95% RH at a step size of 10% RH at 25° C.).

[4] = Equilibrium solubility in organic solvents; conditions: RT; for solubility at 24 h: organic solvent or mixture, thermodynamic from solid
Method: Approximately 10 mg of Form B was weighed into a 1-ml glass vial followed by addition of 0.5 ml relevant media. Each sample was continuously stirred using a magnetic stir bar at 25° C. for 24 h. The suspension was then filtered using a nylon membrane with a pore diameter of 0.22 μm. The filtrates were diluted for HPLC analysis and final pH was measured. The solid residue of each sample was collected for XRPD analysis. The solubility of Form B was also determined in commonly used organic solvents (diluents or HPLC mobile phase). The solubility data summarized in Table 10 indicates Form B is quite soluble in MeOH, EtOH, and IPA.

[5] = Slurry experiments using Form A and Form B (relative stability)
Method: The relative stability between Form A and Form B was investigated by slurry experiments in ACN (containing less than 0.3 wt % water), ACN/H2O (v/v, 3; 1), and H2O at room temperature and 50° C. In general, about 10-30 mg Form A was added to a 5-ml glass vial with 0.5 ml corresponding solvents to get suspensions at room temperature and 50° C., respectively. Then 10-30 mg Form B was added to the suspensions which were kept stirring for 24 h. The water activity was calculated using the UNIFAC model.

[6] = Bulk control (covered with foil), Vis Stability (1.2 Mil lux-hours)
[7] = Bulk control (covered with foil), Vis-UV stability (1.2 Mil lux-hours + 200 Watt-hours/m^2)
[8] = Bulk, Vis Stability (1.2 Mil lux-hours)
[9] = Bulk, Vis-UV stability (1.2 Mil lux-hours + 200 Watt-hours/m^2)

% area [1, 6]: 99.7%
% claim [1, 6]: 100.0%
% area [1, 7]: 99.8%
% claim [1, 7]: 100.0%
% area [1, 8]: 99.8%
% claim [1, 8]: 101.1%
% area [1, 9]: 99.8%
% claim [1, 9]: 99.6%
water activity at which Form B is thermodynamically more stable than Form C [2]: ≥ 0.30
weight change (DVS) [3]: ~0.3%
Remaining Solid ([4]; Acetone): Form B
Remaining Solid ([4]; Acetonitrile): Form B
Remaining Solid ([4]; Ethanol): No solid obtained
Remaining Solid ([4]; Isopropanol): No solid obtained
solubility (in words) ([4]; MeOH, EtOH, and IPA): quite soluble
Remaining Solid ([4]; Methanol): No solid obtained
solubility at 24 h ([4]; Acetone): 23.9 mg/mL
solubility at 24 h ([4]; Acetonitrile): 1.5 mg/mL
solubility at 24 h ([4]; Ethanol): > 87 mg/mL
solubility at 24 h ([4]; Isopropanol): > 129 mg/mL
solubility at 24 h ([4]; Methanol): > 200 mg/mL
water activity at which Form B is thermodynamically more stable than Form A ([5]; 50° C.): ≥ 0.08
water activity at which Form B is thermodynamically more stable than Form A ([5]; RT): ≥ 0.09
SMILES: CC(C)N(C[C@H]1O[C@@H](n2cnc3c(N)ncnc32)[C@H](O)[C@@H]1O)[C@H]1C[C@@H](CCc2nc3cc(C(C)(C)C)ccc3[nH]2)C1 [Form B, (2R,3R,4S,5R)-2-(6-amino-9H-purin-9-yl)-5-((((1r,3S)-3-(2-(5-(tert-butyl)-1H-benzo[d]imidazol-2-yl)ethyl)cyclobutyl)(isopropyl)amino)methyl)tetrahydrofuran-3,4-diol trihydrate]
solid-state photostability (in words) ([1]; bulk, full ICH photostability exposure): stable upon exposure to full ICH photostability requirement
